Data on two compounds can be found in patent US10111866B2, “Compounds as rearranged during transfection (RET) inhibitors” (GLAXOSMITHKLINE INTELLECTUAL PROPERTY DEVELOPMENT LIMITED, priority 2015, dated 2018).

One experiment addresses Human RET kinase (Homo sapiens (Human), UniProt P07949). The experiment can be described thus: RET kinase enzymatic assay. Type of experiment: biochemical. The note with it: GST-RET cytoplasmic domain, HTRF readout. Here is the method: RET Kinase Enzymatic Assay
Human RET kinase cytoplasmic domain (amino acids 658-1114 of accession number NP_000314.1) was expressed as an N-terminal GST-fusion protein using a baculovirus expression system. GST-RET was purified using glutathione sepharose chromatography. The RET kinase enzymatic assay was performed in a total volume of 10 uL with increasing concentrations of RET kinase inhibitor as a singlet in a 384 well format as follows: RET inhibitor compound plates are prepared by adding 100 nL of RET inhibitor at different concentrations to a 384-well plate. 5 μL/well of a 2× enzyme mix (50 mM HEPES (4-(2-hydroxyethyl)-1-piperazineethanesulfonic acid); 1 mM CHAPS (3-[(3-cholamidopropyl)dimethylammonio]-1-propane sulfonate); 0.1 mg/mL BSA (bovine serum albumin); 1 mM DTT (dithiothreitol); 0.2 nM RET kinase) was added to the 384-well plate and incubated for 30 minutes at 23° C. […] 10 μL/well of 2× stop/detection mix (50 mM HEPES; 0.1% BSA; 800 mM Potassium Fluoride; 50 mM EDTA (Ethylenediaminetetraacetic acid); 200× dilution of Europium Cryptate labeled anti-phosphotyrosine antibody; 62.5 nM Streptavidin-XL665) incubated for 1 hour at 23° C. and read on a Homogenous Time-Resolved Fluorescence reader. […]

A further experiment relates to TT cells. Description: RET kinase cell-based proliferation assay (TT cells, CellTiter-Glo). The note with it: Homo sapiens, 192 h, eight days. The protocol: RET Kinase Cell-Based Proliferation Assay
The potency of the compounds of the invention were tested for its ability to inhibit cell proliferation and cell viability. TT cells (ATCC CRL-1803), a medullary thyroid cancer cell line with constitutively activated RET kinase, were maintained in 150 cm^2 dishes in F12 Kaighn's medium, 10% fetal bovine serum, 1× Glutamax, 1× non-essential amino acids, 1× Pen/Strep antibiotics at 37° C. in 5% carbon dioxide. 6.0E3 TT cells/well in 50 μL of media were added to a 96-well cell culture plate and allowed to adhere overnight. 50 μL of serially diluted RET inhibitor compounds were added to 96-well plate containing cultured TT cells and incubated at 37° C. in 5% carbon dioxide for eight days. 50 μL of CellTiter-Glo (Promega #G-7573) was added, contents mixed for 1 minute on shaker followed by 10 minutes in the dark at 23° C. and the luminescence read by EnVision (PerkinElmer). IC50s were fitted using GraphPad Prism to a sigmoidal dose response.
For orientation: Cellular ATP, detected with luciferase, serves as a proxy for viable cell number.

Chain of Human RET kinase (P07949 658-1114): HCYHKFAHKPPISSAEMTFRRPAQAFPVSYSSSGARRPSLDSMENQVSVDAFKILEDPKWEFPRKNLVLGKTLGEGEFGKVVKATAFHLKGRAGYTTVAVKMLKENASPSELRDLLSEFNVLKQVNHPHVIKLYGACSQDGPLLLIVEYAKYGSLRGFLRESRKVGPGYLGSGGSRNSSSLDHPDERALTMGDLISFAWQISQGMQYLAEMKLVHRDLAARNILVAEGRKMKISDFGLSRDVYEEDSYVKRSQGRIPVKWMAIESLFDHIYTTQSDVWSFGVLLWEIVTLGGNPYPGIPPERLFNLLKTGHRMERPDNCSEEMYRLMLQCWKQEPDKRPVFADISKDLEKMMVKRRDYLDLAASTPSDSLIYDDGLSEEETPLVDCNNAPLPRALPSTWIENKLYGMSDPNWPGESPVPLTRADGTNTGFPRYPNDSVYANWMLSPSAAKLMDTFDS

On to `CCOc1cc(=O)[nH]cc1-c1ccc(CC(=O)Nc2cc(C(=O)NCCN(C)C)cc(C(F)(F)F)c2)c(F)c1` [Example 1, N-(2-(dimethylamino)ethyl)-3-(2-(4-(4-ethoxy-6-oxo-1,6-dihydropyridin-3-yl)-2-fluorophenyl)acetamido)-5-(trifluoromethyl)benzamide], for which the results for the IC50 on Human RET kinase and with TT cells were at most 10 nM and 10 to 100 nM, respectively.

For `CCOc1cc(=O)[nH]cc1-c1ccc(CC(=O)Nc2cc(OCCN(C)C)cc(C(F)(F)F)c2)c(F)c1` [Example 2, N-(3-(2-(dimethylamino)ethoxy)-5-(trifluoromethyl)phenyl)-2-(4-(4-ethoxy-6-oxo-1,6-dihydropyridin-3-yl)-2-fluorophenyl)acetamide], the IC50 against Human RET kinase was at most 10 nM; with TT cells, 10 to 100 nM.

One may read the IC50 as the concentration that inhibits the measured activity by half. High values mean weaker potency in that assay, low ones greater potency in that assay.
